# Measured values published in publication PMC10700673, “A Smart Intracellular Self‐Assembling Bioorthogonal Raman Active Nanoprobe for Targeted Tumor Imaging” (Advanced Science, 2023).
# Tested on: DU145 tumors
# Assay: ex vivo Raman imaging of excised tumor sections with MCR analysis
# Type: in vivo, NU/J nude mice
# Procedure: Ex vivo Raman imaging was conducted on the tumor excised from the tumor‐bearing mice at 2 h post‐administration of nanoSABER (Figure 6b–d). To distinguish the probe signal from endogenous autofluorescence and Raman‐active molecules in the tissue matrix, multivariate curve resolution (MCR) analysis was performed on the spectral dataset recorded from the Raman‐mapped tumor sections. MCR is designed to tackle such problems by expressing the original data through a bilinear model of pure component meaningful contributions.^[ [43] ^] Tissue sections were divided into five groups: DU145 control, DU145‐nanoSABER, DU145‐Scr, LNCaP control, and LNCaP‐nanoSABER, with the control group representing mice injected with 100 µL of PBS vehicle. Collected Raman spectra were divided into the above‐mentioned classes. The tumor dataset was also supplemented with spectra from the quartz coverslip and a separate class was created to preclude the impact of background spectral features in the ensuing analysis. […] Since we are particularly interested in the wavenumber features in the cell‐silent region (i.e., the nanoSABER‐specific bands in the otherwise biologically silent spectral region), MCR2 serves as the principal differentiator.
# To create a readily interpretable two‐dimensional (2D) visualization plot, we plotted MCR2 scores against that of MCR3, which contains primarily tissue‐characteristic and background features (Figure 6c). […] The highest MCR2 and MCR3 scores for the quartz‐only spectra were used as the lower and upper thresholds, respectively, to depict significant contributions from the individual components. […] This is indicative of a 100% specificity of the nanoSABER probe, without secondary non‐specific spectra from any of the other tumor treatment classes in the ROI. Moreover, 15% of all spectra obtained from mice with DU145 tumors treated with the nanoSABER probe were situated within the ROI, which confirms the high penetration efficiency of the nanoprobes. […]
substance,measurement,setting,value
Ac‐Arg‐Arg‐Arg‐Arg‐Arg‐Arg‐Ala‐Ala‐Asn‐Cys(StBu)‐Pra‐Lys‐CBT [nanoSABER],average ratio of alkyne to nitrile Raman peak intensity of spectra within the ROI,DU145 tumors excised 2 h after IV 0.0125 mmol kg-1,1.5
same,share of all spectra situated within the ROI,"DU145 tumors excised 2 h after IV 0.0125 mmol kg-1, 12 µm cryosections",15%
same,specificity (spectra in the ROI of MCR2 versus MCR3 score plot),"tumors excised 2 h after IV 0.0125 mmol kg-1, 12 µm cryosections",100%
